Results on four compounds are retold here after ChEMBL document CHEMBL4130536, “Deinococcucins A-D, Aminoglycolipids from Deinococcus sp., a Gut Bacterium of the Carpenter Ant Camponotus japonicus” (J Nat Prod, 2017).

As usually defined, the IC50 is the concentration that gives 50% inhibition. Usually MIC stands for the least concentration at which growth counts as inhibited. Higher therefore signals a less susceptible organism.

For one data set, the system named is MDA-MB-231. Description: Cytotoxicity in human MDA-MB-231 cells assessed as reduction in cell viability incubated for 72 hrs by SRB assay. Type of data set: functional, cell-based. The settings on record: MDA-MB-231, 72 h.
Another data set concerns Candida albicans. The data set is described as follows: Antimicrobial activity against Candida albicans incubated for 24 hrs. Type of data set: functional.
The test system of the next data set is SK-HEP1. Description: Cytotoxicity in human SKHEP1 cells assessed as reduction in cell viability incubated for 72 hrs by SRB assay. Type of data set: functional, cell-based. Conditions: SK-HEP1, 72 h.
The next data set relates to A549. Description: Cytotoxicity in human A549 cells assessed as reduction in cell viability incubated for 72 hrs by SRB assay. Type of data set: functional, cell-based. The settings on record: A549, 72 h. (In general: The SRB assay estimates cell density from bound dye.)
A further data set has as its system SNU-638. Description: Cytotoxicity in human SNU638 cells assessed as reduction in cell viability incubated for 72 hrs by SRB assay. The settings on record: SNU-638, 72 h. Type of data set: functional, cell-based.
For a further data set, the system named is Staphylococcus aureus. The data set is described as follows: Antimicrobial activity against Staphylococcus aureus incubated for 24 hrs. The data set is classed as functional.
In a further data set the test system is Proteus hauseri. Description: Antimicrobial activity against Proteus hauseri incubated for 24 hrs. Type of data set: functional.
In the next data set the test system is Escherichia coli. Description: Antimicrobial activity against Escherichia coli incubated for 24 hrs. The data set is classed as functional.
The next data set relates to Salmonella enterica. Description: Antimicrobial activity against Salmonella enterica incubated for 24 hrs. The data set is classed as functional.
A further data set relates to K562. The data set is described as follows: Cytotoxicity in human K562 cells assessed as reduction in cell viability incubated for 72 hrs by SRB assay. Conditions: K562, 72 h. Type of data set: functional, cell-based.
The next data set relates to Bacillus subtilis. The data set is described as follows: Antimicrobial activity against Bacillus subtilis incubated for 24 hrs. Type of data set: functional.
The next data set concerns HCT-116. The data set is described as follows: Cytotoxicity in human HCT116 cells assessed as reduction in cell viability incubated for 72 hrs by SRB assay. Type of data set: functional, cell-based. The settings on record: HCT-116, 72 h.
The next data set relates to Aspergillus fumigatus. Description: Antimicrobial activity against Aspergillus fumigatus incubated for 24 hrs. Type of data set: functional.
For the next data set, the system named is Kocuria rhizophila. The data set is described as follows: Antimicrobial activity against Kocuria rhizophila incubated for 24 hrs. Type of data set: functional.
Data set [1] is described as follows: Toxicity in mouse Hepa1c1c7 cells at 2.5 to 20 uM. The data set is classed as cell-based.

In the case of `CCCCCCCCCCCCCCCCCNC(=O)[C@H](O)CO[C@H]1O[C@H](CO)[C@@H](O)[C@H](O)[C@H]1NC(C)=O`, the IC50 in the data set on MDA-MB-231, with SK-HEP1, in the data set on A549, with SNU-638, in the data set on K562 and in the data set with HCT-116 was greater than 10 µM each time. Also, the minimum inhibitory concentration (MIC) in the data set with Candida albicans, in the data set with Staphylococcus aureus, in the data set on Proteus hauseri, in the data set on Escherichia coli, in the data set on Salmonella enterica and against Bacillus subtilis was greater than 128 µM in each case. Also, the minimal inhibitory concentration (MIC) in the data set with Aspergillus fumigatus and in the data set with Kocuria rhizophila was greater than 128 µM in each case.
On to `CCCCCCC/C=C\CCCCCCCCNC(=O)[C@H](O)CO[C@H]1O[C@H](CO)[C@@H](O)[C@H](O)[C@H]1NC(C)=O`, for which the IC50 with MDA-MB-231, in the data set with SK-HEP1, in the data set with A549, with SNU-638, in the data set with K562 and in the data set on HCT-116 was greater than 10 µM in each case. Further, the minimum inhibitory concentration (MIC) in the data set with Candida albicans, in the data set with Staphylococcus aureus, against Proteus hauseri, in the data set on Escherichia coli, against Salmonella enterica and in the data set on Bacillus subtilis was greater than 128 µM throughout. Besides, the MIC against Aspergillus fumigatus and against Kocuria rhizophila was greater than 128 µM each time.
On to `CCCCCCCCCCCCCCCCNC(=O)[C@H](O)CO[C@H]1O[C@H](CO)[C@@H](O)[C@H](O)[C@H]1NC(C)=O`, for which the IC50 in the data set on MDA-MB-231, with SK-HEP1, with A549, in the data set with SNU-638, in the data set with K562 and in the data set with HCT-116 was greater than 10 µM in each case. The MIC in the data set with Candida albicans, in the data set on Staphylococcus aureus, against Proteus hauseri, in the data set on Escherichia coli, against Salmonella enterica and in the data set on Bacillus subtilis was greater than 128 µM each time. Also, the MIC in the data set on Aspergillus fumigatus and in the data set with Kocuria rhizophila was greater than 128 µM in each case. In [1], the Activity entry was “Non-Toxic”.
Regarding `CCCCCC/C=C\CCCCCCCCNC(=O)[C@H](O)CO[C@H]1O[C@H](CO)[C@@H](O)[C@H](O)[C@H]1NC(C)=O`, the 50% inhibitory concentration (IC50) in the data set on MDA-MB-231, with SK-HEP1, in the data set on A549, with SNU-638, with K562 and in the data set with HCT-116 was greater than 10 µM in each case. Further, the MIC in the data set with Candida albicans, against Staphylococcus aureus, in the data set with Proteus hauseri, in the data set on Escherichia coli, with Salmonella enterica and with Bacillus subtilis was greater than 128 µM in each case. Also, the minimal inhibitory concentration (MIC) with Aspergillus fumigatus and in the data set on Kocuria rhizophila was greater than 128 µM in each case. Moreover, the Activity entry in data set [1] is recorded as “Non-Toxic”.
